Values quoted from earlier work in patent publication US20260248891A1, “TIRZEPATIDE COMPOSITIONS AND USE” (Eli Lilly and Company, priority 2022, published 2026).

Tested on: patients with obesity or overweight
Details: Phase 3 study, currently approved doses

tirzepatide
weight loss: 15.7%
